According to ChEMBL document CHEMBL5107965, “The progress of small-molecules and degraders against BCR-ABL for the treatment of CML” (Eur J Med Chem, 2022):
Values after ≈ are worked out from the molar mass of the structure shown. One block for each compound: values may come before it.

Key:
[1] = Cytotoxicity against human CD34-positive/CD38-negative leukemic cell assessed as cell growth inhibition measured after 48 hrs by MTT assay; assay type: functional, cell-based
Leukemia cell = experiment: Cytotoxicity against human Leukemia cell assessed as cell growth inhibition measured after 48 hrs by MTT assay; assay type: functional, cell-based
K562 [2] = experiment: Antiproliferative activity against imatinib resistant human K562 cells assessed as cell growth inhibition measured after 48 hrs by MTT assay; assay type: functional, cell-based; details: K562, 48 h
[3] = Half life in BALB/c mouse at 30 mg/kg, po via gavage; assay type: ADME, organism-based; details: in vivo
[4] = Cmax in BALB/c mouse at 30 mg/kg, po via gavage; assay type: ADME, organism-based; design: dose 30 mg/kg, route po; details: in vivo
[5] = molecular target: Tyrosine-protein kinase Lyn (Homo sapiens, UniProt P07948); experiment: Inhibition of LYN (unknown origin) in presence of [gamma33P]-ATP and ATP by ELISA method
Chain of Tyrosine-protein kinase Lyn (P07948 whole entry): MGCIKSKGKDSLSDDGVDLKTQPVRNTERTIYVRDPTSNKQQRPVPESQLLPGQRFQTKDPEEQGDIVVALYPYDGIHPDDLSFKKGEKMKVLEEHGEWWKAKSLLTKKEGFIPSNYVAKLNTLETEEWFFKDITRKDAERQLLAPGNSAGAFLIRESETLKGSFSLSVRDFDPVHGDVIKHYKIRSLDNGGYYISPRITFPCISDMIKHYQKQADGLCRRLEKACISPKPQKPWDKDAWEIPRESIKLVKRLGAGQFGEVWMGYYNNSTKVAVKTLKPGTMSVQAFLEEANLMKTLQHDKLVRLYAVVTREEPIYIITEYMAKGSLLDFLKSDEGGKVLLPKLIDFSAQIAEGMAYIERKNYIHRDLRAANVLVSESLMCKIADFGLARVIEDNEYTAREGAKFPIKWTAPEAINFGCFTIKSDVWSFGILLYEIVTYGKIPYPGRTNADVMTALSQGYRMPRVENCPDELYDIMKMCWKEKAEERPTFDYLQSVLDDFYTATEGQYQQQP

[6] = Tmax in BALB/c mouse at 30 mg/kg, po via gavage; assay type: ADME, organism-based; details: in vivo
[7] = Oral bioavailability in BALB/c mouse at 30 mg/kg via gavage; assay type: ADME, organism-based; details: in vivo
[8] = AUC in BALB/c mouse at 30 mg/kg, po via gavage; assay type: ADME, organism-based; design: dose 30 mg/kg, route po; details: in vivo
K562 [9] = experiment: Antiproliferative activity against human K562 cells assessed as cell growth inhibition; assay type: functional, cell-based
K562 [10] = experiment: Antiproliferative activity against human K562 cells assessed as cell growth inhibition measured after 48 hrs by WST assay; assay type: functional, cell-based; details: K562, 48 h
[11] = Inhibition of Abl […] mutant (unknown origin); design: species or system Homo sapiens
[12] = molecular target: Tyrosine-protein kinase ABL1 (Homo sapiens, UniProt P00519, T315I); experiment: Inhibition of Abl T315I mutant (unknown origin)
[13] = molecular target: Tyrosine-protein kinase ABL1 (Homo sapiens, UniProt P00519)
Description: Inhibition of wild type Abl (unknown origin)

Aurora kinase A = molecular target: T1, Aurora kinase A (Homo sapiens, UniProt O14965); experiment: Inhibition of Aurora A (unknown origin)
T1 sequence (O14965 whole entry): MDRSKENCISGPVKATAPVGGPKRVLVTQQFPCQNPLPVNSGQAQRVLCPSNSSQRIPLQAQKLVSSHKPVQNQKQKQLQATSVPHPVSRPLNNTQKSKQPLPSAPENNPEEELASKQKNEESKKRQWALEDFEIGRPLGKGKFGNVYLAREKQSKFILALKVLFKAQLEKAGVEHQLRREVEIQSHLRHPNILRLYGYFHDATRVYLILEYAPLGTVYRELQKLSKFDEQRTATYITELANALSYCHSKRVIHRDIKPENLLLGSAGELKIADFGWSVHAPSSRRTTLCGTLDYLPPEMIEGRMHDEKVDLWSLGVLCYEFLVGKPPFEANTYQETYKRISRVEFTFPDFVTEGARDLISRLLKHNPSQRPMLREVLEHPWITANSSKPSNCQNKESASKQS

K562 [14] = experiment: Antiproliferative activity against imatinib resistant human K562 cells expressing BCR-ABL assessed as cell growth inhibition; assay type: functional, cell-based
K562 [15] = experiment: Antiproliferative activity against imatinib resistant human K562 cells expressing STAT5 assessed as cell growth inhibition; assay type: functional, cell-based
[16] = molecular target: Platelet-derived growth factor receptor beta (Homo sapiens, UniProt P09619); experiment: Inhibition of PDGFRbeta (unknown origin)
Chain of Platelet-derived growth factor receptor beta (P09619 whole entry): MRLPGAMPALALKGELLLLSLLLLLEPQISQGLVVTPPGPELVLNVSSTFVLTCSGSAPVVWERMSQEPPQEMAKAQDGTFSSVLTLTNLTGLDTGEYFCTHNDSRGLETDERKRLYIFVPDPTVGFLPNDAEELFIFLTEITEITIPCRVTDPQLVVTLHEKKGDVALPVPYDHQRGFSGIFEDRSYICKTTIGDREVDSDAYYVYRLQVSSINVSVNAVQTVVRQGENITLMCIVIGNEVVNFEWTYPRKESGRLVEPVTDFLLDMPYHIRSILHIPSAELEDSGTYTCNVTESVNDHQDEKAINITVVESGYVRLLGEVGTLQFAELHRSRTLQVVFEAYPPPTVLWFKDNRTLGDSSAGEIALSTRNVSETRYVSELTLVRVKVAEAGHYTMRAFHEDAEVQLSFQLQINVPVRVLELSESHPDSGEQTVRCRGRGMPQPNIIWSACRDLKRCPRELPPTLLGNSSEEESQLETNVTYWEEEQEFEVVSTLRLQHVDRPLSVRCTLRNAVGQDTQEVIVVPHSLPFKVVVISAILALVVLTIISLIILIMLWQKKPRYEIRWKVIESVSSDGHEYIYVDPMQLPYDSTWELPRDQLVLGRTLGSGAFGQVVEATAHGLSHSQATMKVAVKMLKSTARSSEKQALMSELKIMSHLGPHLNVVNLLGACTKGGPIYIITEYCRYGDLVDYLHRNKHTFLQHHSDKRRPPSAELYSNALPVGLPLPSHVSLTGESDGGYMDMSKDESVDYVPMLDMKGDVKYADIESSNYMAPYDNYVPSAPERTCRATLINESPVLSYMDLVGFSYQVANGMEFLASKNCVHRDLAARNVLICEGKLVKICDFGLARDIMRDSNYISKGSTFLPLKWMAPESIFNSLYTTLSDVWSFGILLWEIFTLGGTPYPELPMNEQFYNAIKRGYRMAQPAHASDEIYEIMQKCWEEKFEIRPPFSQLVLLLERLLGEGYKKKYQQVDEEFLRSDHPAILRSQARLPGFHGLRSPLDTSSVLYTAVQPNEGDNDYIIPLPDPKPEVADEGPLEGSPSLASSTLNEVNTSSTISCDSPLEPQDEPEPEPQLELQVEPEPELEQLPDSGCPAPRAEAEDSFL

[17] = molecular target: Mast/stem cell growth factor receptor Kit (Homo sapiens, UniProt P10721); experiment: Inhibition of c-Kit (unknown origin)
Chain of Mast/stem cell growth factor receptor Kit (P10721 whole entry): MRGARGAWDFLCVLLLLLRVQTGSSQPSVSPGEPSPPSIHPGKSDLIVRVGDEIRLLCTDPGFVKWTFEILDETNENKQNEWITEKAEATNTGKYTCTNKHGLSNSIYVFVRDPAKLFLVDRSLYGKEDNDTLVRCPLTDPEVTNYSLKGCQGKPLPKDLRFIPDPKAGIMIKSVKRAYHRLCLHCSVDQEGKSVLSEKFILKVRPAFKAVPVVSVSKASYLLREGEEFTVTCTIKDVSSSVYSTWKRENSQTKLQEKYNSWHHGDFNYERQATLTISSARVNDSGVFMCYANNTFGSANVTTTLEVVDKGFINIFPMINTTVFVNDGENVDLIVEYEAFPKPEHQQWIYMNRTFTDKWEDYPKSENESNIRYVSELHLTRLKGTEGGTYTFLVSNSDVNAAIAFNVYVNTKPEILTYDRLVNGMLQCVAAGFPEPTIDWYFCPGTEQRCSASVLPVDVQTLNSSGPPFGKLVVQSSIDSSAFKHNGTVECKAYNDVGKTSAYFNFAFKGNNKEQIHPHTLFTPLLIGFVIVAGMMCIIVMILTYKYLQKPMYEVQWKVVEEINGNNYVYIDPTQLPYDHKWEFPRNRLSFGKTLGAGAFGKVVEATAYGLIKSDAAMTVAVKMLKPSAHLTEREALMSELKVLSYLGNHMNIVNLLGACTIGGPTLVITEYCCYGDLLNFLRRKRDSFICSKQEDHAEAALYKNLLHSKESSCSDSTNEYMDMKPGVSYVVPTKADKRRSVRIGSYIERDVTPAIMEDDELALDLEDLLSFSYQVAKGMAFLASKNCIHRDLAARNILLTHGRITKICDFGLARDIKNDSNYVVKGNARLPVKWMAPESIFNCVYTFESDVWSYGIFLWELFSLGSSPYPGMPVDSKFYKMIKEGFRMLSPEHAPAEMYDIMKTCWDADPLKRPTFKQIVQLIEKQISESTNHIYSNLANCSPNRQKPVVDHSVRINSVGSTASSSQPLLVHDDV

[18] = Antiproliferative activity against human KM3 cells assessed as cell growth inhibition measured after 48 hrs by MTT assay; assay type: functional, cell-based; details: KM3, 48 h
[19] = Antiproliferative activity against human KM3 cells assessed as cell growth inhibition measured after 24 hrs by MTT assay; assay type: functional, cell-based; details: KM3, 24 h
[20] = Antiproliferative activity against human KM3 cells assessed as cell growth inhibition measured after 72 hrs by MTT assay; assay type: functional, cell-based; details: KM3, 72 h
K562 [21] = experiment: Antiproliferative activity against imatinib resistant human K562 cells assessed as cell growth inhibition measured after 24 hrs by MTT assay; assay type: functional, cell-based; details: K562, 24 h
[22] = Cytotoxicity against human Hematopoietic stem cell assessed as cell growth inhibition measured after 48 hrs by MTT assay; assay type: toxicity, cell-based; details: hematopoietic stem cells
BaF3 = experiment: cells; details: Mus musculus
KBM5 [23] = experiment: Antiproliferative activity against human KBM5 cells assessed as cell growth inhibition measured after 24 to 48 hrs by MTS assay; assay type: functional, cell-based
K562 [24] = experiment: Antiproliferative activity against human K562 cells assessed as cell growth inhibition measured after 24 to 48 hrs by MTS assay; assay type: functional, cell-based
KBM5 [25] = experiment: Antiproliferative activity against human KBM5 cells harbouring T315I mutant assessed as cell growth inhibition measured after 24 to 48 hrs by MTS assay; assay type: functional, cell-based

- half-life [3]: 1 h
- Cmax [4]: 661 ng/mL
- IC50 [5]: 19 nM
- Tmax [6]: 2 h
- bioavailability [7]: 32%
- AUC [8]: 2290 ng·h/mL
SMILES: Cc1ccc(NC(=O)c2ccc(CN3CC[C@H](N(C)C)C3)c(C(F)(F)F)c2)cc1Nc1nccc(-c2cncnc2)n1 [BAFETINIB]

- IC50 (K562 [10]): 8.6 nM
SMILES: CN[C@@H](C)C(=O)N[C@H](C(=O)N1CCC[C@H]1c1nc(C(=O)c2ccc(OCCOCCOCCOCC(=O)N3CCN(c4cc(Nc5ncc(C(=O)Nc6c(C)cccc6Cl)s5)nc(C)n4)CC3)cc2)cs1)C1CCCCC1

- IC50 [16]: 308 nM
- IC50 [17]: 666 nM
SMILES: Cc1ncc(NC(=O)c2ccc(CN3CCN(C)CC3)c(C(F)(F)F)c2)cc1Nc1nccc(-c2cccnc2)n1 [FLUMATINIB]

- IC50 (BaF3): 100 nM
SMILES: Cc1cc(Nc2cc(N3CCN(C)CC3)nc(Sc3ccc(NC(=O)C4CC4)cc3)n2)n[nH]1 [TOZASERTIB]

More lines, now with the values behind:

SMILES: COc1ccc2cc1Oc1ccc(cc1)C[C@H]1c3cc(c(OC)cc3CCN1C)Oc1c(OC)c(OC)cc3c1[C@H](C2)N(C)CC3.O=C(O)CC(O)(CC(=O)O)C(=O)O
- IC50 [1]: 1.2 µg/mL
- IC50 (Leukemia cell): 1.2 µg/mL
- IC50 (K562 [2]): 1.2 µg/mL

SMILES: COc1cc2c3cc1Oc1c(OC)c(OC)cc4c1[C@@H](Cc1ccc(OC(=O)c5ccc(Cl)cc5)c(c1)Oc1ccc(cc1)C[C@@H]3N(C)CC2)N(C)CC4
- IC50 (K562 [9]): 0.5 µg/mL (≈ 0.669 µM)

SMILES: CNC(=O)c1cc(Oc2ccc(NC(=O)Nc3cc(C(C)(C)C)nn3-c3ccc4ncccc4c3)c(F)c2)ccn1 [REBASTINIB]
- IC50 [11]: 1.4 nM

SMILES: CC(C)c1cc(CNc2nc(Nc3cc(C4CC4)[nH]n3)cc(N3CCN(C)CC3)n2)on1 [XL-228]
- IC50 [12]: 14 nM
- IC50 [13]: 5 nM
- IC50 (Aurora kinase A): 3.1 nM
- IC50 (K562 [14]): 33 nM
- IC50 (K562 [15]): 43 nM

SMILES: COc1cc2c3cc1Oc1c(OC)c(OC)cc4c1[C@@H](Cc1ccc(O)c(c1)Oc1ccc(cc1)C[C@@H]3N(C)CC2)N(C)CC4 [BERBAMINE]
- IC50 (K562 [2]): 11100 nM
- IC50 [18]: 5.09 µg/mL (≈ 8.36 µM)
- IC50 [19]: 8.17 µg/mL (≈ 13.4 µM)
- IC50 [20]: 3.84 µg/mL (≈ 6.31 µM)
- IC50 (K562 [21]): 17100 nM
- IC50 at 48 h [22]: 185 µg/mL (≈ 304 µM)

SMILES: COc1ccc(-c2cc(=O)c3c(O)cc(O)cc3o2)cc1O [DIOSMETIN]
- IC50 (KBM5 [23]): 8520 nM
- IC50 (K562 [24]): 8420 nM
- IC50 (KBM5 [25]): 6460 nM
